Earlier results as cited in patent US20080139615A1, “COMBINATION OF A HYPNOTIC AGENT AND R (+)-ALPHA-(2,3-DIMETHOXY-PHENYL)-1-[2-(4-FLUOROPHENYL)ETHYL]-4-PIPERIDINEMETHANOL AND THERAPEUTIC APPLICATION THEREOF” (priority 2005, published 2008).

Experiments:
[1] = average dosage between 5 and 10 mg, conventional formulation
[2] = test system: slow wave sleep (SWS), arousals; conditions: patients with sleep maintenance insomnia

Row | SMILES | acting time [1] | half life (average value) [1] | SWS (slow wave sleep) [2]
1 | Cc1ccc(-c2nc3ccc(C)cn3c2CC(=O)N(C)C)cc1 [Zolpidem, zolpidem] | up to 6 hours | about 2.4 hours | 
2 | COc1cccc([C@H](O)C2CCN(CCc3ccc(F)cc3)CC2)c1OC [Compound A, R-(+)-α-(2,3-dimethoxyphenyl)-1-[2-(4-fluorophenyl)ethyl]-4-piperidinemethanol] |  |  | increase
